Experiment [1] addresses T1, angiotensin-converting enzyme (ACE) isolated from pig's renal cortex (Sus scrofa, UniProt F1RRW5).
T1 construct: isolated from pig's renal cortex; from tissue; host or cells: pig renal cortex
T1 sequence (F1RRW5 34-1309): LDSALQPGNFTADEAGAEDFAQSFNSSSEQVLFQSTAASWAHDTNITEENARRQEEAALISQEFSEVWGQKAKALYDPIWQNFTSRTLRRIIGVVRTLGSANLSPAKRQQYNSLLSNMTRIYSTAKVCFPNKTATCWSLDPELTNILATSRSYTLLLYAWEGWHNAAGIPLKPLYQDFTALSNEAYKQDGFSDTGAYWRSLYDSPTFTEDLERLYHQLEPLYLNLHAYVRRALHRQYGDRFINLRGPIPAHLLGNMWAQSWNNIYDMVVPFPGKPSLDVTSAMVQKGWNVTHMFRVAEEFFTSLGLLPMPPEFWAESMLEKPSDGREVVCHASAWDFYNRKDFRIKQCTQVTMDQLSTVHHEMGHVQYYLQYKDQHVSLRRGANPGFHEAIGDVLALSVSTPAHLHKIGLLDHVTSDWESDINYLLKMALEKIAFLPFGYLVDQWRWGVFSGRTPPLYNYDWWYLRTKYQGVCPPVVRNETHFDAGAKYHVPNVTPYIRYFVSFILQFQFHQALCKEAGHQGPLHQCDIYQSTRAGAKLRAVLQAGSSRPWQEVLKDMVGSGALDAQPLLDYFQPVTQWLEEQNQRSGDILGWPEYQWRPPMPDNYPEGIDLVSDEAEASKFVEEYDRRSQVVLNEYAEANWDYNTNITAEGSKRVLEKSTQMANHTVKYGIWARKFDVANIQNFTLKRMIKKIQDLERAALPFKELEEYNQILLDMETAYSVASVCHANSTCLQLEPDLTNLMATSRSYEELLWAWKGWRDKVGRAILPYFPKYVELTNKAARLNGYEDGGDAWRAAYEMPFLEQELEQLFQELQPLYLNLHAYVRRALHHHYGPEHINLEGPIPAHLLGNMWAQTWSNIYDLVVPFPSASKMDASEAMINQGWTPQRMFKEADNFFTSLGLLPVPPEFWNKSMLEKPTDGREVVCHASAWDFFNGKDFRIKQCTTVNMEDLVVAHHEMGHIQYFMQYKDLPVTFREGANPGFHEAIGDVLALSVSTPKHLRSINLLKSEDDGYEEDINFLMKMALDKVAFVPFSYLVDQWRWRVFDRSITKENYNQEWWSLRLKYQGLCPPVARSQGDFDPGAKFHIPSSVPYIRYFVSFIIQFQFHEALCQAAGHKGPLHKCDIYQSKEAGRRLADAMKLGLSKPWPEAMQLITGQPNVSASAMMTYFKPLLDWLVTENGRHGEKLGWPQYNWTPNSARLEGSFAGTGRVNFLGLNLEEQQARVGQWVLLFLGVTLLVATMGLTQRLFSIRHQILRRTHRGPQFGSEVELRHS
In words: ACE-inhibitory activity in vitro (histidyl-leucine released from hippuryl-histidyl-leucine). It counts as biochemical. The procedure:
ACE-inhibitory activity in vitro:
50 μl of a solution containing 0.01 mole/liter of hippuryl-histidyl-leucine (substrate) and 0-100 μl of a test compound solution were added to 300 μl of a 0.2M trishydrochloric acid buffer solution containing 0.2 mole/liter of sodium chloride. The total volume of said mixture was adjusted to 450 μl with water. Then, 50 μl of angiotensin -converting enzyme (ACE) isolated from pig's renal cortex were added to the mixture, and the mixture was allowed to stand at 37° C. for 20 minutes. The amount of histidyl-leucine produced from the substrate by the action of ACE was assayed microbiologically by the use of Leuconostoc mesenteroides P-60, and the ACE-inhibitory activity of the test compound was estimated therefrom.
*I50 = a dose required to induce 50% inhibition of the ACE activity

For experiment [2], the system named is spontaneously hypertensive rats (SHR). In words: Hypotensive activity in SHR (systolic blood pressure, tail plethysmographic technique). As to conditions: 50 mg/kg orally; for Decrease in blood pressure (-Δ mm Hg): SHR fasted overnight, systolic; for Duration of action: hypotensive action, SHR. It counts as in vivo, rat. Here is the method:
Hypotensive activity in SHR:
A test compound (dose: 50 mg/kg) suspended in an aqueous carboxymethylcellulose solution was administered orally to spontaneously hypertensive rats (SHR) fasted overnight. The systolic blood pressure of the rats was measured by the tail plethysmographic technique (The Journal of Laboratory and Clinical Medicine 78(1971), page 957). The hypotensive activity of the test compound was estimated from the decreased level of blood pressure.

The subject of experiment [3] is angiotensin-converting enzyme (ACE). In words: ACE-inhibitory activity in vivo (pressor response to angiotensin I in anesthetized normotensive rats). Also noted: species or system rat. As to conditions: 0.1 mg/kg i.v.; for Duration of activity: ACE inhibition in vivo; for ACE-inhibitory activity in vivo: percentage inhibition of ACE activity, angiotensin I 300 ng/kg i.v. Here is the method:
ACE-inhibitory activity in vivo:
Normotensive rats weighing 300-400 g were anesthetized with urethane (1.5 g/kg, s.c.), and angiotensin I (300 ng/kg) was injected into the femoral vein of the rats. The pressor response to angiotensin I was measured with a pressure transducer connected to the carotid artery. Then, a test compound was injected intravenously thereto at a dose of 0.1 mg/kg, and angiotensin I (300 ng/kg) was further injected intravenously at intervals. The ACE-inhibitory activity of the test compound was estimated from the pressur responses to angiotensin I which were obtained before and after intravenous injection of the test compound.
*percentage inhibition of ACE activity in vivo

The mark [4] stands for this setting: dose required to induce 50% inhibition of the ACE activity, pig renal cortex ACE, 37° C., 20 minutes, read-out: ACE-inhibitory activity in vitro I50.

Values joined by “and” are separate entries in the source; they are usually repeats but may differ in a detail not shown here. Equal values may be shown once. Where a name gives a salt, the structure may show the parent alone. Read-outs that look alike come from different tables or passages of the source.

The source of these data is patent US4294832A, “Tetrahydroisoquinoline compounds and a pharmaceutical composition thereof” (Tanabe Seiyaku Co., Ltd., priority 1979, dated 1981).

With `C=CCN(CCC(=O)O)C(=O)N1Cc2ccccc2C[C@H]1C(=O)O` [3(S)-2-[N-allyl-N-(2-carboxyethyl)carbamoyl]-1,2,3,4-tetrahydroisoquinoline-3-carboxylic acid di-L-lysine salt], in experiment [1] (setting [4]), the IC50 was determined as 140 nM.
Still for that read-out and setting: to `O=C(O)CCN(C(=O)N1Cc2ccccc2C[C@H]1C(=O)O)C1CC1` [3(S)-2-[N-cyclopropyl-N-(2-carboxyethyl)-carbamoyl]-1,2,3,4-tetrahydroisoquinoline-3-carboxylic acid di-dicyclohexylamine salt] belongs 140 nM; to `CCN(CCC(=O)O)C(=O)N1Cc2ccccc2C[C@H]1C(=O)O` [3(S)-2-[N-ethyl-N-2-carboxyethyl)carbamoyl]-1,2,3,4-tetrahydroisoquinoline-3-carboxylic acid di-sodium salt], 21 nM.
On to `CCN(CCC(=O)O)C(=O)N1Cc2ccccc2C[C@H]1C(=O)O` [3(S)-2-[N-ethyl-N-(2-carboxyethyl)carbamoyl]-1,2,3,4-tetrahydroisoquinoline-3-carboxylic acid calcium salt], for which the IC50 in experiment [1] (setting [4]) was 11 nM; in experiment [1] (in vitro, ACE isolated from pig's kidney, read-out: 50% inhibition of the activity of the enzyme at a concentration of), around 11 nM.
`CCOC(=O)CCN(CC)C(=O)N1Cc2ccccc2C[C@H]1C(=O)O` [3(S)-2-[N-ethyl-N-(2-ethoxycarbonylethyl)carbamoyl]-1,2,3,4-tetrahydroisoquinoline-3-carboxylic acid 1/2 calcium salt]: in experiment [2], the “Decrease in blood pressure (-Δ mm Hg)” value came out at 26 mm Hg and the Duration of action is above 6 h.
With `CCOC(=O)CCN(CC)C(=O)N1Cc2ccccc2C[C@H]1C(=O)O` [3(S)-2-[N-ethyl-N-(2-ethoxycarbonylethyl)carbamoyl]-1,2,3,4-tetrahydroisoquinoline-3-carboxylic acid L-lysine salt], in experiment [3], the Duration of activity was above 60 min and the “ACE-inhibitory activity in vivo” value is above 60%.
Turning to `CCCCOC(=O)CCN(CC)C(=O)N1Cc2ccccc2C[C@H]1C(=O)O` [3(S)-2-[N-ethyl-N-(2-n-butoxycarbonylethyl)carbamoyl]-1,2,3,4-tetrahydroisoquinoline-3-carboxylic acid L-lysine salt], the Duration of activity in experiment [3] is above 60 min. For the same compound, the “ACE-inhibitory activity in vivo” value in experiment [3] (0.1 mg/kg) is 80% and > 60%.
Turning to `CCOC(=O)CCN(CC)C(=O)N1Cc2ccccc2C[C@H]1C(=O)O.NCCCC[C@H](N)C(=O)O` [3(S)-2-[N-ethyl-N-(2-n-ethoxycarbonylethyl)carbamoyl]-1,2,3,4-tetrahydroisoquinoline-3-carboxyleic acid L-lysine salt], in experiment [2], the “Decrease in blood pressure (-Δ mm Hg)” value was determined as 25 mm Hg and the Duration of action is above 6 h.
Consider `CC(C)N(CCC(=O)O)C(=O)N1Cc2ccccc2C[C@H]1C(=O)O` [3(S)-2-[N-isopropyl-N-(2-carboxyethyl)carbamonyl]-1,2,3,4-tetrahydroisoquinoline-3-carboxylic acid di-L-lysine salt], for which the IC50 in experiment [1] (setting [4]) amounted to 29 nM.
Take `CC(C)N(CCC(=O)O)C(=O)N1Cc2ccccc2C[C@H]1C(=O)O` [3(S)-2-[N-isopropyl-N-(2-carboxyethyl)carbamoyl]-1,2,3,4-tetrahydroisoquinoline-3-carboxylic acid di-dicyclohexylamine salt]: in experiment [3], the Duration of activity was above 60 min and the “ACE-inhibitory activity in vivo” value is given as above 60%.
With `CCOC(=O)CCN(C(=O)N1Cc2ccccc2C[C@H]1C(=O)O)C(C)C` [3(S)-2-[N-isopropyl-N-(2-ethoxycarbonylethyl)carbamoyl]-1,2,3,4-tetrahydroisoquinoline-3-carboxylic acid L-lysine salt], in experiment [3], the Duration of activity was above 60 min and the “ACE-inhibitory activity in vivo” value is listed as above 60%.
For the compound `COC(=O)CCN(C(=O)N1Cc2ccccc2C[C@H]1C(=O)O)C(C)C` [3(S)-2-[N-isopropyl-N-(2-methoxycarbonylethyl)carbamoyl]-1,2,3,4-tetrahydroisoquinoline-3-carboxylic acid L-lysine salt], in experiment [2], the “Decrease in blood pressure (-Δ mm Hg)” value is reported as 36 mm Hg and the Duration of action is above 6 h. In addition, the Duration of activity in experiment [3] (0.1 mg/kg) lay within 30 to 60 min. The “ACE-inhibitory activity in vivo” value in experiment [3] is 40 - 60%.
On to `COC(=O)CCN(C(=O)N1Cc2ccccc2C[C@H]1C(=O)O)C(C)C` [3(S)-2-[N-isopropyl-N-(2-methoxycarbonylethyl)carbamoyl]-1,2,3,4-tetrahydroisoquinoline-3-carboxylic acid sodium salt], for which the Duration of activity in experiment [3] (sodium salt, 0.1 mg/kg) was above 60 min.
For the compound `CCCCOC(=O)CCN(C(=O)N1Cc2ccccc2C[C@H]1C(=O)O)C(C)C` [3(S)-2-[N-isopropyl-N-(2-n-butoxycarbonylethyl)carbamoyl]-1,2,3,4-tetrahydroisoquinoline-3-carboxylic acid L-lysine salt], in experiment [3], the Duration of activity is above 60 min and the “ACE-inhibitory activity in vivo” value is recorded as above 60%.
Take `CN(CCC(=O)O)C(=O)N1Cc2ccccc2C[C@H]1C(=O)O` [3(S)-2-[N-methyl-N-(2-carboxyethyl)carbamoyl]-1,2,3,4-tetrahydroisoquinoline-3-carboxylic acid 2 dicyclohexylamine salt]: the IC50 in experiment [1] (setting [4]) turned out to be 610 nM.
For the compound `CCOC(=O)CCN(C)C(=O)N1Cc2ccccc2C[C@H]1C(=O)O` [3(S)-2-[N-methyl-N-(2-ethoxycarbonylethyl)carbamoyl]-1,2,3,4-tetrahydroisoquinoline-3-carboxylic acid L-lysine salt], in experiment [3], the Duration of activity was above 60 min and the “ACE-inhibitory activity in vivo” value was 40 - 60%.
`CCCN(CCC(=O)O)C(=O)N1Cc2ccccc2C[C@H]1C(=O)O` [3(S)-2-[N-n-propyl-N-(2-carboxyethyl)carbamoyl]-1,2,3,4-tetrahydroisoquinoline-3-carboxylic acid 2 dicyclohexylamine salt]: the IC50 in experiment [1] (setting [4]) was 550 nM.
For the compound `C#CCN(CCC(=O)O)C(=O)N1Cc2ccccc2C[C@H]1C(=O)O` [3(S)-2-[N-propargyl-N -(2-carboxyethyl)carbamoyl]-1,2,3,4-tetrahydroisoquinoline-3-carboxylic acid di-L-lysine salt], the IC50 in experiment [1] (setting [4]) is 35 nM.
